Laboratory results taken from paper PMC11066040, “Nuclear phosphoinositide signaling promotes YAP/TAZ-TEAD transcriptional activity in breast cancer” (The EMBO Journal, 2024).

Assays:
[1] = target: T1, GST-YAP (Homo sapiens, UniProt P46937); test: microscale thermophoresis; assay type: binding
T1 construct: gene YAP1

[2] = target: T1, GST-YAP; test: microscale thermophoresis; assay type: binding; settings: pH 8.0, 50 mM NaCl, 80 mM KCl, 0.05% Tween-20; fluorescently labeled GST-YAP

T1 sequence (P46937 whole entry): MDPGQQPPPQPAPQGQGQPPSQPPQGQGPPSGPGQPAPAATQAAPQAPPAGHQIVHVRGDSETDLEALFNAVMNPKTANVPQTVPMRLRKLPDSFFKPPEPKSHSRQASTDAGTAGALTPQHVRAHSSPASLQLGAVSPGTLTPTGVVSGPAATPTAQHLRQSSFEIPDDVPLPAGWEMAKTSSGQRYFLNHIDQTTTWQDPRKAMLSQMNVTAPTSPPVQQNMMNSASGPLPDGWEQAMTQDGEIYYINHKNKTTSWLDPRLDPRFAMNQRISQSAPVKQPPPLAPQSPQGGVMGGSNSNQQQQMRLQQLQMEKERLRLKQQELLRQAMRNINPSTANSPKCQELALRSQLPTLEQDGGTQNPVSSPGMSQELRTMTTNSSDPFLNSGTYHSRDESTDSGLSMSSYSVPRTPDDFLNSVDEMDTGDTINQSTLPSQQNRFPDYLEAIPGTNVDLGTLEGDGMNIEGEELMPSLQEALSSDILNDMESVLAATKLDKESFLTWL

SMILES | Kd [1] [nM] | binding [2]
CCCCC/C=C\C/C=C\C/C=C\C/C=C\CCCC(=O)O[C@H](COC(=O)CCCCCCCCCCCCCCCCC)COP(=O)(O)O[C@@H]1[C@H](O)[C@H](O)[C@@H](OP(=O)(O)O)[C@H](OP(=O)(O)O)[C@H]1O [PI(4,5)P2] | 166 ± 13.5 | 
CCCCC/C=C\C/C=C\C/C=C\C/C=C\CCCC(=O)O[C@H](COC(=O)CCCCCCCCCCCCCCCCC)COP(=O)(O)O[C@H]1[C@H](O)[C@@H](OP(=O)(O)O)[C@H](OP(=O)(O)O)[C@@H](OP(=O)(O)O)[C@H]1O [PI(3,4,5)P3] | 8.13 ± 2.63 | 
CCCCC/C=C\C/C=C\C/C=C\C/C=C\CCCC(=O)O[C@H](COC(=O)CCCCCCCCCCCCCCCCC)COP(=O)(O)O[C@@H]1[C@H](O)[C@H](O)[C@@H](O)[C@H](O)[C@H]1O [PI] |  | No significant binding of GST-YAP with PI was detected
